Data on 7 compounds can be found in patent US20250170127A1, “RE-SENSITIZING MULTIDRUG-RESISTANT (MDR) GRAM-NEGATIVE BACTERIA TO COLISTIN USING IONOPHORES” (The Regents of the University of Colorado, a body corporate, priority 2022, published 2025).

The test system of series [1] is E. coli AR-0493. Briefly: MIC, CLSI broth microdilution, substance alone. It is filed as cell-based. As to the method:
A MDR E. coli strain AR-0493 (a.k.a., ATCC BAA-3170) was obtained from the CDC and FDA Antibiotic Resistance Bank and used for the initial screen. […] Considering the difficulties on the discovery of novel antimicrobial reagents against Gram-negative bacteria, we chose to screen the fragment-based library of 3,200 compounds from TimTec (Tampa, FL). […] The screen used a modified broth microdilution assay.
These 10 compounds were tested for their MICs and minimum re-sensitizing concentrations (MRCs) in the presence colistin at 2 μg/mL in E. coli AR-0493. […] To evaluate their toxicity in mammalian cells, the present inventors treated human epithelial adenocarcinoma HeLa cells with each compound at a wide range of concentrations. […]
(§1) General Methods. MDR strains E. coli AR-0493, AR-0346, and AR-0538, Salmonella Enteritidis AR-0496, Salmonella Typhimurium AR-0635, K. pneumoniae AR-0497, A. baumannii AR-0300 and AR-0310 were all obtained from the CDC & FDA Antibiotic Resistance Isolate Bank. E. coli K-12 was a gift from the Copley lab (Department of MCD Biology, University of Colorado Boulder). HeLa cells were purchased from the ATCC. All bacterial strains were grown on trypticase soy agar supplemented with 5% sheep blood (BAP). Bacteria were then cultured in Luria-Bertani (LB) medium at 35° C. until they achieve the log phase before screening or antimicrobial testing using CAMHB media. MIC, MRC, and checkerboard analyses and mammalian growth inhibition analyses in Hela cells were performed as described previously. More details are given in Supporting information.
A general note: Dilution methods test growth across graded concentrations, often in twofold steps.

For series [2], the system named is E. coli AR-0493. Description: Minimum re-sensitizing concentration (MRC) in the presence of colistin. It is filed as cell-based. The conditions noted are these: in the presence of 2 μg/mL colistin, E. coli AR-0493. As to the method:
These 10 compounds were tested for their MICs and minimum re-sensitizing concentrations (MRCs) in the presence colistin at 2 μg/mL in E. coli AR-0493.
The present inventors further conducted MRC screens of selected compounds from groups 2-5 in AR-0493. Compound were tested against AR-0493 with compound X+2 μg/mL Colistin.
All compounds were tested for their respective minimum resensitizing concentrations (MRCs) for colistin against E. coli. AR0493, a MDR strain from CDC and FDA Antibiotic Resistance Bank. […] For the symmetrical bisanilino series, 7a-p, electron-donating alkyl and alkoxy groups (entries 7a-g, Table 5) at various positions of the phenyl rings were investigated. […] Three asymmetric bisanilino analogs (7q-s, Table 5) were synthesized based on the SARs of the monoanilino analogs 8a-p (vide infra).
as §1

Series [3] relates to HeLa cells. Briefly: in vitro. It is filed as cell-based, human. How it is done:
These 10 compounds were tested for their MICs and minimum re-sensitizing concentrations (MRCs) in the presence colistin at 2 μg/mL in E. coli AR-0493. […] To evaluate their toxicity in mammalian cells, the present inventors treated human epithelial adenocarcinoma HeLa cells with each compound at a wide range of concentrations.
(§2) To evaluate the mammalian toxicity of these analogs, Applicants tested them in cell viability assay using human cervical adenocarcinoma HeLa cells. Their respective half maximal growth inhibition concentration (GI50) was calculated using KaleidaGraph. The selectivity index (SI) for each compound was also calculated as the ratio of their GI50 and MRC. […] Therefore, Applicants selected two bisanilino analogs, 7l and 7m, that bear chlorines at the meta- and para-positions, respectively, of the phenyl groups for further characterization studies. […]. […] Their mammalian toxicities were also evaluated, and SIs calculated. […] Applicants we next explored the scope of analogs 71 and 7m their colistin-potentiating activity in 8 different MDR Gram negative bacteria with diverse genetic backgrounds and resistance mechanisms (Table 7). All strains were obtained from CDC and FDA Antibiotic Resistance Bank. For example, E. coli AR-0493 and K. pneumoniae AR-0497 carry the plasmid that contains the most prevalent mcr-1 gene. E. coli AR-0538, Salmonella Typhimurium AR-0539 and AR-0635 contain the mcr-2, 3, and 4 genes, respectively. These genes encode the phosphoethanolamine transferase, which was originated form the chromosome of A. baumannii, such as AR-0310. […]. A. baumannii AR-0310 appears more sensitive to these two compounds and the MICs of colistin was reduced to 0.25 μg/mL.
as §1

In series [4] the test system is A. baumannii AR-0310. Description: Colistin MIC in the absence or presence of RMA compound. It is filed as cell-based. The conditions noted are these: for Colistin MIC (+ compound): in the presence of 1 μg/mL of compound indicated; for Colistin MIC: colistin alone.
From the text: (§3) To investigate the scope of the colistin-potentiation effect of compound 3, the present inventors screened a panel of MDR Gram-negative bacteria obtained from the CDC and FDA Antibiotic Resistance Bank. These include a variety of Enterobacteriaceae spp., such as E. coli AR-0346 and AR-0538, K. pneumoniae AR-0497, Salmonella Enteritidis AR-0496, and Salmonella Typhimurium AR-0635. These strains all express the mcr genes (e.g., mcr-1, mcr-2, and mcr-4) and are resistant to colistin with its MICs of 8-16 μg/mL (Table 2). […] The only exception is Salmonella Typhimurium AR-0635, which expresses mcr-4 gene. […]. […]. Furthermore, the present inventors also tested the activity of colistin in the presence or absence of 1 μg/mL compound 3 in a wild-type E. coli K-12. […] The MICs of compound 3 in all these strains were >64 μg/mL, the highest concentration tested.
as §2, §1

In series [5] the test system is E. coli AR-0493. Described as above. It is filed as cell-based. The conditions noted are these: for Colistin MIC (+ compound): in the presence of 1 μg/mL of compound indicated, E. coli AR-0493; for Colistin MIC: colistin alone, E. coli AR-0493, mcr-1.
From the text: as §3, §2, §1

The test system of series [6] is E. coli AR-0538. The description is as above. It is filed as cell-based. Particulars: for Colistin MIC (+ compound): in the presence of 1 μg/mL of compound indicated, E. coli AR-0538; for Colistin MIC: colistin alone, E. coli AR-0538, mcr-2.
From the text: as §3, §2, §1

Series [7] deals with K. pneumoniae AR-0497. The series is described as above. It is filed as cell-based. Particulars: for Colistin MIC (+ compound): in the presence of 1 μg/mL of compound indicated, K. pneumoniae AR-0497; for Colistin MIC: colistin alone, K. pneumoniae AR-0497, mcr-1.
From the text: as §3, §2, §1

Series [8] has as its system Salmonella Typhimurium AR-0635. The series is described as above. It is filed as cell-based. Particulars: for Colistin MIC (+ compound): in the presence of 1 μg/mL of compound indicated, S. Typhimurium AR-0635; for Colistin MIC: colistin alone.
From the text: as §3, §2, §1

In series [9] the test system is P. aeruginosa AR-0239. The series is described as above. The conditions noted are these: for fold reduction of colistin MIC: 1 μg/mL of compound; for Colistin MIC (+ compound): in the presence of 1 μg/mL of compound indicated. It is filed as cell-based. How it is done: as §2
Series [10] has as its system P. aeruginosa AR-0257. Described as above. The conditions noted are these: for fold reduction of colistin MIC: 1 μg/mL of compound; for Colistin MIC (+ compound): in the presence of 1 μg/mL of compound indicated. It is filed as cell-based. How it is done:
as §2

Series [11] has as its system Salmonella Typhimurium AR-0539. Described as above. It is filed as cell-based. Particulars: for Colistin MIC (+ compound): in the presence of 1 μg/mL of compound indicated, S. Typhimurium AR-0539. How it is done:
as §2

Series [12] relates to mitochondria. Particulars: previously reported; in vitro and in mice; cited from earlier work.
The subject of series [13] is E. coli AR-0349. Description: MICs of a panel of 9 antibiotics with and without compound 3. It is filed as cell-based.
In series [14] the test system is P. aeruginosa AR-0768. Briefly: Colistin MIC in the absence or presence of RMA compound. It is filed as cell-based. Particulars: colistin alone.
From the text: as §3

Series [15] relates to A. baumannii AR-0300. Described as above. It is filed as cell-based. Particulars: colistin alone.
From the text: as §3, §1

The test system of series [16] is E. coli AR-0346. The series is described as above. It is filed as cell-based. Particulars: colistin alone; E. coli AR-0346, mcr-1.
From the text: as §3, §1

For series [17], the system named is E. coli K-12. The description is as above. It is filed as cell-based. Particulars: colistin alone; wild-type E. coli K-12.
From the text: as §3, §1

The test system of series [18] is Salmonella Enteritidis AR-0496. The series is described as above. It is filed as cell-based. Particulars: colistin alone; Salmonella Enteritidis AR-0496, mcr-1.
From the text: as §3, §1

The test system of series [19] is MDR Gram-negative bacteria. Description: MICs across a panel of MDR Gram-negative bacteria (summary statements). It is filed as cell-based. The conditions noted are these: colistin alone.
From the text: as §3, §2, §1

`Clc1cccc(Nc2nc3nonc3nc2Nc2cccc(Cl)c2)c1` [Compound 7l]: the MIC in series [1] was greater than 64 µg/mL. For the same compound, the “MRC (minimum re-sensitizing concentration)” value (shortened to “MRC”) in series [2] is 0.25 µg/mL. Besides, the GI50 in [3] stood at 1.1 µg/mL. Also, the “Colistin MIC (+ compound)” value was found to be 0.25 µg/mL in series [4]; 1 µg/mL in [5]; 1 µg/mL in series [6]; 1 µg/mL in series [7]; 1 µg/mL in series [8]; 1 µg/mL in [9]. The “Colistin MIC (+ compound)” value in [10] worked out at 2 µg/mL; in series [11], 1 µg/mL. The “fold reduction of colistin MIC” value in series [9] and in series [10] was 4 folds throughout.
Take `Clc1ccc(Nc2nc3nonc3nc2Nc2ccc(Cl)cc2)cc1` [Compound 7m]: the MIC in [1] is greater than 64 µg/mL. For the same compound, the “MRC” value in series [2] turned out to be 0.5 µg/mL. Also, the GI50 in series [3] turned out to be 2.8 µg/mL. Moreover, the “Colistin MIC (+ compound)” value came out at 0.25 µg/mL in series [4]; 1 µg/mL in [5]; 2 µg/mL in series [6]; 1 µg/mL in series [7]; 1 µg/mL in series [8]; 1 µg/mL in series [9]. In addition, the “Colistin MIC (+ compound)” value in series [10] and in [11] was 2 µg/mL throughout. For the same compound, the “fold reduction of colistin MIC” value in series [9] and in series [10] was 4 folds each time.
As to `FC(F)(F)Oc1ccc(Nc2nc3nonc3nc2Nc2ccc(OC(F)(F)F)cc2)cc1` [Compound 7p], in series [1], the MIC is greater than 64 µg/mL. The “MRC” value in series [2] (listed as 57p) is 0.25 µg/mL. Further, the GI50 in series [3] was 5.7 µg/mL. Further, the mitochondrial uncoupler activity entry in series [12] is on record as “poor uncoupler”.
Consider `Cc1cccc(Nc2nc3nonc3nc2Nc2cccc(OC(F)(F)F)c2)c1` [Compound 7r], for which the MIC in series [1] is greater than 64 µg/mL. In addition, the “MRC” value in series [2] came to 0.5 µg/mL. Further, the GI50 in series [3] worked out at 12 µg/mL.
For the compound `Oc1nc2nonc2nc1Nc1cccc(OC(F)(F)F)c1` [Compound 8o], in series [1], the MIC was greater than 64 µg/mL. Further, the “MRC” value in series [2] worked out at 4 µg/mL. The GI50 in series [3] worked out at 24 µg/mL.
As for `Oc1nc2nonc2nc1Nc1ccc(OC(F)(F)F)cc1` [Compound 8p], the mitochondrial uncoupler activity result in series [12] is on record as “one of the most potent uncouplers”.
Regarding Colistin [reference compound], the MIC in series [1] is 16 µg/mL; in series [13] (antibiotic alone, multidrug-resistant E. coli), 16 µg/mL. In addition, in [13] (CLSI 2021, M100, Ed 31), the “INT (S-R interpretation)” value was “R”. The fold of potentiation in series [13] (by 1 μg/mL of compound 3) amounted to 16 fold. In [13] (in the presence of 1 μg/mL of compound 3), the “MIC (+3)” value was 1 µg/mL. In addition, the “Colistin MIC” value was 16 µg/mL in series [4] (Table 2); 32 µg/mL in series [4] (Table 7); 16 µg/mL in series [5] (Table 2); 8 µg/mL in [5] (Table 7); 8 µg/mL in series [6] (Table 2); 8 µg/mL in series [6] (Table 7). Further, the “Colistin MIC” value in series [7] (Table 2) stood at 8 µg/mL; in series [7] (Table 7) it was 8 µg/mL; in series [8] (S. Typhimurium AR-0635, mcr-4, Table 7), 32 µg/mL; in [8] (Salmonella Typhimurium AR-0635, mcr-4, Table 2), 16 µg/mL; in series [14] it was 16 µg/mL; in series [15] it was 8 µg/mL. Besides, the “Colistin MIC” value in series [16] was 8 µg/mL; in series [17], 0.25 µg/mL; in [18] it was 16 µg/mL; in series [9] (colistin alone) it was 4 µg/mL; in [10] (colistin alone) it was 8 µg/mL; in [11] (colistin alone, S. Typhimurium AR-0539, mcr-3), 8 µg/mL. The results for the “Colistin MIC” value in series [19] (8 MDR Gram negative strains of Table 7) and in series [19] (mcr-expressing Enterobacteriaceae strains of Table 2) were 4 to 32 µg/mL and 8 to 16 µg/mL, respectively.

One may read the MIC as the lowest concentration found to suppress growth. For orientation: GI50 means the concentration that inhibits growth by half.
